The values that follow come from patent US9624199B2, “Substituted bipiperidinyl derivatives” (Bayer Pharma Aktiengesellschaft, priority 2013, dated 2017).

In test [1] the target is recombinant human α2C receptor CHO cell line (Homo sapiens (Human), UniProt P18825). Put plainly: Antagonism against adrenoreceptor α2C (luminescence, noradrenaline-stimulated recombinant CHO cells). It is filed as cell-based. Conditions: 20 nM noradrenaline, tested up to 10 μM. The procedure: B-1a) Antagonism Against Adrenoreceptors
Antagonism against the adrenoreceptor α1A was tested using a recombinant human α1A receptor CHO cell line which additionally also recombinantly expresses mtAeq (mitochondrial aequorin). Antagonism against the adrenoreceptor α2A was tested using a recombinant human α2A-Gα16 receptor fusion protein CHO cell line (PerkinElmer Life Sciences) which additionally also recombinantly expresses mtAeq. Antagonism against the adrenoreceptor α2B was tested using a recombinant human α2B receptor CHO cell line (PerkinElmer Life Sciences) which additionally also recombinantly expresses mtAeq. Antagonism against the adrenoreceptor α2C was tested using a recombinant human α2C receptor CHO cell line which additionally also recombinantly expresses a chimeric G protein (Gαqi3) and mtOb (mitochondrial obelin).
The cells were cultivated at 37° C. and 5% CO2 in Dulbecco's modified Eagle's Medium/NUT mix F12 with L-glutamine which additionally contained 10% (v/v) inactivated foetal calf serum, 1 mM sodium pyruvate, 0.9 mM sodium bicarbonate, 50 U/ml penicillin, 50 μg/ml streptomycin, 2.5 μg/ml amphotericin B and 1 mg/ml Geneticin. The cells were passaged with enzyme-free Hank's-based cell dissociation buffer. All cell culture reagents used were from Invitrogen (Carlsbad, USA).
Luminescence measurements were carried out on white 384-well microtitre plates. 2000 cells/well were plated in a volume of 25 μl and cultivated for one day at 30° C. and 5% CO2 in cell culture medium with coelenterazine (α2A and α2B: 5 μg/ml; α1a/c and α2C: 2.5 μg/ml). Serial dilutions of the test substances (10 μl) were added to the cells. After 5 minutes, noradrenaline was added to the cells (35 μl; final concentrations: 20 nM (α1a/c and α2C) or 200 nM (α2A and α2B)), and the emitted light was measured for 50 seconds using a CCD (charge-coupled device) camera (Hamamatsu Corporation, Shizuoka, Japan) in a light-tight box. The test substances were tested up to a maximum concentration of 10 μM. The IC50 values were calculated from the appropriate dose-response curves.

Test [2] has as its system diabetic (ZDFfa/fa) and healthy rats (Wistar). Put plainly: Assay of perfusion-enhancing substances (microcirculation), laser doppler probe at the paw. It is filed as in vivo, rat. The conditions noted are these: single oral dose; for factor by which microcirculation is improved at MED compared to placebo: at the MED, 30 min after administration; for MED skin temperature: minimum effective dose for significant increase of skin temperature (ttest); for MED microcirculation: minimum effective dose with significantly improved microcirculation vs placebo, measured 30 min after administration. From the text:
B-2e) Assay of Perfusion-Enhancing Substances (Microcirculation)
In diabetic (ZDFfa/fa) and healthy rats (Wistar), a laser doppler probe was fastened under anaesthesia conditions (isoflurane anaesthesia) at the sole of the paw for measuring cutaneous microcirculation. The test animals were once treated orally with the test substances. During the experiment, microperfusion and temperature of the lower extremities were documented continuously. Here, a temperature-sensitive laser doppler probe (Periflux, 02C) was fastened with adhesive to the paws of the animals, allowing the measurement of microperfusion and skin temperature. The microcirculation measurement values were measured on both paws 30 min after oral administration of the test substance. […] Also stated is the MED for the significant increase of skin temperature (ttest).
Microcirculation data for adrenoreceptor α2C receptor antagonist of the compound of Example 11 and for comparative substance ORM12741, an AR α2C receptor antagonist from Orion, are shown in Table 2: […]

Structures can show the parent of a compound that is named as a salt.

Chain of recombinant human α2C receptor CHO cell line (P18825 whole entry, the tested form may be a part): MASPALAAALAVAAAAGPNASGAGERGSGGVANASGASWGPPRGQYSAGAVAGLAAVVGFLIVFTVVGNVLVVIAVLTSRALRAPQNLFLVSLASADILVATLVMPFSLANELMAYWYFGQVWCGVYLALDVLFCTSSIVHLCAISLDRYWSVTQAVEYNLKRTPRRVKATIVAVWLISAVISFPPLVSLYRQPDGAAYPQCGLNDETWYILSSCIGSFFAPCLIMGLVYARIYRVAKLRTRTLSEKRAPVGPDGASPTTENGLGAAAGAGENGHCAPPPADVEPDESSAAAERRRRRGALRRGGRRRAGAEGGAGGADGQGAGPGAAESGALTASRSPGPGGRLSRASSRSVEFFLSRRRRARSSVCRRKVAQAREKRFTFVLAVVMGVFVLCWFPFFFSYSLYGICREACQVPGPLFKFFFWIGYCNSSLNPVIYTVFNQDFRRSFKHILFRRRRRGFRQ

As to `C[C@@H]1CCCN(C2CCN(C(=O)c3ccc(N4CCC(F)(F)CC4)nc3)CC2)C1` [Example 5, [6-(4,4-Difluoropiperidin-1-yl)pyridin-3-yl][(3R)-3-methyl-1,4′-bipiperidin-1′-yl]methanone], in test [1], the IC50 is 18 nM. Consider `C[C@@H]1CCCN(C2CCN(C(=O)c3ccc(N4CCOCC4)nc3)CC2)C1` [Example 1, [(3R)-3-Methyl-1,4′-bipiperidin-1′-yl][6-(morpholin-4-yl)pyridin-3-yl]methanone formic acid salt], for which the IC50 in test [1] (formic acid salt) was found to be 28 nM. For the molecule `COC[C@H]1CCCN1c1ncc(C(=O)N2CCC(N3CCC[C@@H](C)C3)CC2)cn1` [Example 20, {2-[(2R)-2-(Methoxymethyl)pyrrolidin-1-yl]pyrimidin-5-yl}[(3R)-3-methyl-1,4′-bipiperidin-1′-yl]methanone], the IC50 in test [1] is 41 nM. As to `C[C@@H]1CCCN(C2CCN(C(=O)c3cnc(N4CC5(COC5)C4)nc3)CC2)C1` [Example 18, [(3R)-3-Methyl-1,4′-bipiperidin-1′-yl][2-(2-oxa-6-azaspiro[3.3]hept-6-yl)pyrimidin-5-yl]methanone], the IC50 in test [1] amounted to 24 nM. On to `CCC(CO)Nc1ccc(C(=O)N2CCC(N3CCC[C@@H](C)C3)CC2)cn1` (stereo partly drawn) [Example 11, {6[(1-Hydroxybutan-2-yl)amino]pyridin-3-yl}[(3R)-3-methyl-1,4′-bipiperidin-1′-yl]methanone], for which the IC50 in test [1] came out at 62 nM. In test [2], the “factor by which microcirculation is improved at MED compared to placebo” value came out at 2.4 ×, the MED skin temperature was 1 mg/kg and the MED microcirculation came out at 1 mg/kg. As to `CC1CCCN(c2ccc(C(=O)N3CCC(N4CCC[C@@H](C)C4)CC3)cn2)C1` (stereo partly drawn) [Example 15, [(3R)-3-Methyl-1,4′-bipiperidin-1′-yl][6-(3-methylpiperidin-1-yl)pyridin-3-yl]methanone], in test [1], the IC50 came out at 27 nM. Turning to `C[C@@H]1CCCN(C2CCN(C(=O)c3ccc(N4CCS(=O)(=O)CC4)nc3)CC2)C1` [Example 9, [6-(1,1-Dioxidothiomorpholin-4-yl)pyridin-3-yl][(3R)-3-methyl-1,4′-bipiperidin-1′-yl]methanone], in test [1], the IC50 came out at 27 nM.

As to `COCCNc1ccc(C(=O)N2CCC(N3CCC[C@@H](C)C3)CC2)cn1` [Example 4, {6-[(2-Methoxyethyl)amino]pyridin-3-yl}[(3R)-3-methyl-1,4′-bipiperidin-1′-yl]methanone], the IC50 in test [1] came out at 36 nM. On the same count and under the same terms, the same measure for `C[C@@H]1CCCN(C2CCN(C(=O)c3ccc(N(C)Cc4c(F)cccc4F)nc3)CC2)C1` [Example 8, {6-[(2,6-Difluorobenzyl)(methyl)amino]pyridin-3-yl}[(3R)-3-methyl-1,4′-bipiperidin-1′-yl]methanone]: 4.5 nM. Consider `CCC(COC)Nc1ccc(C(=O)N2CCC(N3CCC[C@@H](C)C3)CC2)cn1` (stereo partly drawn) [Example 14, {6-[(1-Methoxybutan-2-yl)amino]pyridin-3-yl}[(3R)-3-methyl-1,4′-bipiperidin-1′-yl]methanone], for which the IC50 in test [1] is 16 nM.

Take `C[C@@H]1CCCN(C2CCN(C(=O)c3cnc(N4CCOCC4)nc3)CC2)C1` [Example 16, [(3R)-3-Methyl-1,4′-bipiperidin-1′-yl][2-(morpholin-4-yl)pyrimidin-5-yl]methanone]: in test [1], the IC50 was determined as 54 nM. Regarding `CC[C@@H](CO)Nc1ccc(C(=O)N2CCC(N3CCC[C@@H](C)C3)CC2)cn1` [Example 10, (6-{[(2 S)-1-Hydroxybutan-2-yl]amino}pyridin-3-yl)[(3R)-3-methyl-1,4′-bipiperidin-1′-yl]methanone], the IC50 in test [1] is 18 nM.

Consider `COCCN(C)c1ccc(C(=O)N2CCC(N3CCC[C@@H](C)C3)CC2)cn1` [Example 6, {6-[(2-Methoxyethyl)(methyl)amino]pyridin-3-yl}[(3R)-3-methyl-1,4′-bipiperidin-1′-yl]methanone hydrochloride], for which the IC50 in test [1] worked out at 33 nM. On the same count and under the same terms, to `O=C(c1cnc(N2CCOCC2)nc1)N1CCC(N2CCCC(OCC3CC3)C2)CC1` (stereo not drawn) [Example 17, [3-(Cyclopropylmethoxy)-1,4′-bipiperidin-1′-yl][2-(morpholin-4-yl)pyrimidin-5-yl]methanone] belongs 14 nM; to `C[C@@H]1CCCN(C2CCN(C(=O)c3ccc(N4CCOCC4)nc3)CC2)C1` [Example 2, [(3R)-3-Methyl-1,4′-bipiperidin-1′-yl][6-(morpholin-4-yl)pyridin-3-yl]methanone], 50 nM.

`COC[C@@]1(C)CCCN2CCc3c(oc4ccccc34)[C@@H]21` [ORM-12741, reference compound]: in test [2], the “factor by which microcirculation is improved at MED compared to placebo” value worked out at 1.9 ×, the MED skin temperature was found to be 0.01 mg/kg and the MED microcirculation is 0.1 mg/kg. In the case of `O=C(c1ccc(N2CCOCC2)nc1)N1CCC(N2CCCC(OCC3CC3)C2)CC1` (stereo not drawn) [Example 7, [3-(Cyclopropylmethoxy)-1,4′-bipiperidin-1′-yl][6-(morpholin-4-yl)pyridin-3-yl]methanone], the IC50 in test [1] came out at 13 nM.

`COC1CCN(c2ccc(C(=O)N3CCC(N4CCC[C@@H](C)C4)CC3)cn2)C1` (stereo partly drawn) [Example 13, [6-(3-Methoxypyrrolidin-1-yl)pyridin-3-yl][(3R)-3-methyl-1,4′-bipiperidin-1′-yl]methanone]: the IC50 in test [1] came to 12 nM.

With `C[C@@H]1CCCN(C2CCN(C(=O)c3cnc(N4CCC(F)(F)CC4)nc3)CC2)C1` [Example 19, [2-(4,4-Difluoropiperidin-1-yl)pyrimidin-5-yl][(3R)-3-methyl-1,4′-bipiperidin-1′-yl]methanone], the IC50 in test [1] was 19 nM.

On to `CCC(COC(N)=O)Nc1ccc(C(=O)N2CCC(N3CCC[C@@H](C)C3)CC2)cn1` (stereo partly drawn) [Example 12, 2-[(5-{[(3R)-3-Methyl-1,4′-bipiperidin-1′-yl]carbonyl}pyridin-2-yl)amino]butyl carbamate], for which the IC50 in test [1] worked out at 21 nM.

For `C[C@@H]1CCCN(C2CCN(C(=O)c3cnc(N4CCS(=O)(=O)CC4)cn3)CC2)C1` [Example 21, [5-(1,1-Dioxidothiomorpholin-4-yl)pyrazin-2-yl][(3R)-3-methyl-1,4′-bipiperidin-1′-yl]methanone], the IC50 in test [1] is 71 nM. On to `COC[C@H]1CCCN1c1ccc(C(=O)N2CCC(N3CCC[C@@H](C)C3)CC2)cn1` [Example 3, {6-[(2R)-2-(Methoxymethyl)pyrrolidin-1-yl]pyridin-3-yl}[(3R)-3-methyl-1,4′-bipiperidin-1′-yl]methanone formic acid salt], for which the IC50 in test [1] was determined as 11 nM.
